Test results published in ChEMBL document CHEMBL1148975, “Ancistrobenomine a, the first naphthylisoquinoline oxygenated at Me-3, and related 5,1'-coupled alkaloids, from the "new" plant species ancistrocladusbenomensis” (J Nat Prod, 2004).
Values after ≈ are worked out from the molar mass of the structure shown.

Columns and labels:
[1] = test system: Trypanosoma brucei rhodesiense; experiment: Antitrypanosomal activity against Trypanosoma brucei rhodesiense; assay type: functional, organism-based
[2] = test system: Plasmodium falciparum; experiment: Antiplasmodial activity against Plasmodium falciparum K1; assay type: functional, organism-based
[3] = test system: Trypanosoma cruzi; experiment: Antitrypanosomal activity against Trypanosoma cruzi; assay type: functional, organism-based
[4] = test system: Leishmania donovani; experiment: Antileishmanial activity against Leishmania donovani; assay type: functional, organism-based
[5] = test system: L6; experiment: Cytotoxicity against rat L6 cells; assay type: cell-based

Row | IC50 [1] | IC50 [2] | IC50 [3] | IC50 [4] | Compound | MIC [5]
1 | 2.2 µg/mL (≈ 5.4 µM) | 0.51 µg/mL (≈ 1.25 µM) | 36.4 µg/mL (≈ 89.3 µM) | 18.8 µg/mL (≈ 46.1 µM) | COc1cc(O)c(-c2c(C)cc(OC)c3c(O)cccc23)c2c1[C@@H](C)N(C)[C@@H](C)C2 | 15.5 µg/mL (≈ 38 µM)
2 | 14.7 µg/mL (≈ 36.3 µM) | 2.18 µg/mL (≈ 5.38 µM) | 23.4 µg/mL (≈ 57.7 µM) | > 30 µg/mL | COc1cccc2c(-c3c(O)cc(OC)c4c(C)nc(CO)cc34)c(C)cc(O)c12 [6-O-DEMETHYLANCISTROBENOMINE A] | 59.9 µg/mL (≈ 148 µM)
3 | 1.3 µg/mL (≈ 3.1 µM) | 0.76 µg/mL (≈ 1.81 µM) | 4.8 µg/mL (≈ 11.4 µM) | > 10 µg/mL | COc1cc(OC)c2c(C)nc(CO)cc2c1-c1c(C)cc(O)c2c(OC)cccc12 [ANCISTROBENOMINE A] | 12.3 µg/mL (≈ 29.3 µM)

Row | Compound | IC50 [1] | IC50 [2] | IC50 [3] | IC50 [4] | MIC [5]
4 | Nc1nc(N)nc(Nc2ccc([As]3SCC(CO)S3)cc2)n1 (stereo unspecified) [MELARSOPROL] | 0.00095 µg/mL |  |  |  | 
